The compounds below were run on PBMCs infected with VSV-G pseudotyped HIV virus (VSV-G/pNLG1-P2A-ΔEnv) (assay: cells). Conditions: Homo sapiens, PBMC, read-out: EC50 (HIV-TACK cell kill activity).
Format: cell-based, human

SMILES	EC50 [nM]
CC(C)C#CC1(C(F)(F)F)NC(=O)Nc2cc(Cn3cnccc3=O)ccc21 (racemic) [Example 77, (S)-4-(3-methylbut-1-yn-1-yl)-7-((6-oxopyrimidin-1(6H)-yl)methyl)-4-(trifluoromethyl)-3,4-dihydroquinazolin-2(1H)-one AND (R)-4-(3-methylbut-1-yn-1-yl)-7-((6-oxopyrimidin-1(6H)-yl)methyl)-4-(trifluoromethyl)-3,4-dihydroquinazolin-2(1H)-one]	87
CN1C(=O)Nc2cc(Cn3cnccc3=O)c(Cl)cc2C1(C#CC1CC1)C(F)(F)F (racemic) [Example 78, (S)-6-chloro-4-(cyclopropylethynyl)-3-methyl-7-((6-oxopyrimidin-1(6H)-yl)methyl)-4-(trifluoromethyl)-3,4-dihydroquinazolin-2(1H)-one AND (R)-6-chloro-4-(cyclopropylethynyl)-3-methyl-7-((6-oxopyrimidin-1(6H)-yl)methyl)-4-(trifluoromethyl)-3,4-dihydroquinazolin-2(1H)-one]	38
CC(C)CC#CC1(C(F)(F)F)NC(=O)Nc2cc(Cn3cnccc3=O)ccc21 (racemic) [Example 79, (S)-4-(4-methylpent-1-yn-1-yl)-7-((6-oxopyrimidin-1(6H)-yl)methyl)-4-(trifluoromethyl)-3,4-dihydroquinazolin-2(1H)-one AND (R)-4-(4-methylpent-1-yn-1-yl)-7-((6-oxopyrimidin-1(6H)-yl)methyl)-4-(trifluoromethyl)-3,4-dihydroquinazolin-2(1H)-one]	230
N#Cc1cc2c(cc1Cn1cnccc1=O)NC(=O)NC2(C#CC1CC1)C(F)(F)F (single isomer, unassigned) [Example 75]	221
CN1C(=O)Nc2cc(Cn3ccnc(N)c3=O)c(Cl)cc2C1(C#CC1CC1)C(F)(F)F (single isomer, unassigned) [Example 76]	42
O=C1Nc2cc(Cn3cnccc3=O)c(F)cc2[C@@](C#CC2CC2)(C(F)(F)F)N1 [Example 1, (S)-4-(cyclopropylethynyl)-6-fluoro-7-((6-oxopyrimidin-1(6H)-yl)methyl)-4-(trifluoromethyl)-3,4-dihydroquinazolin-2(1H)-one]	22
Nc1nccn(Cc2cc3c(cc2F)[C@@](C#CC2CC2)(C(F)(F)F)NC(=O)N3)c1=O [Example 2, (S)-7-((3-amino-2-oxopyrazin-1(2H)-yl)methyl)-4-(cyclopropylethynyl)-6-fluoro-4-(trifluoromethyl)-3,4-dihydroquinazolin-2(1H)-one]	15
Cc1cc(=O)n(Cc2cc3c(cc2Cl)[C@@](C#CC2CC2)(C(F)(F)F)NC(=O)N3)cn1 [Example 3, (S)-6-chloro-4-(cyclopropylethynyl)-7-((4-methyl-6-oxopyrimidin-1(6H)-yl)methyl)-4-(trifluoromethyl)-3,4-dihydroquinazolin-2(1H)-one]	26
CC(F)(F)[C@@]1(C#CC2CC2)NC(=O)Nc2cc(Cn3cnccc3=O)c(F)cc21 [Example 4, (S)-4-(cyclopropylethynyl)-4-(1,1-difluoroethyl)-6-fluoro-7-((6-oxopyrimidin-1(6H)-yl)methyl)-3,4-dihydroquinazolin-2(1H)-one]	16
Nc1cncn(Cc2cc3c(cc2F)[C@@](C#CC2CC2)(C(F)(F)F)NC(=O)N3)c1=O [Example 5, (S)-7-((5-amino-6-oxopyrimidin-1(6H)-yl)methyl)-4-(cyclopropylethynyl)-6-fluoro-4-(trifluoromethyl)-3,4-dihydroquinazolin-2(1H)-one]	35
O=C1Nc2cc(Cn3cnc(C(F)F)cc3=O)c(F)cc2[C@@](C#CC2CC2)(C(F)(F)F)N1 [Example 6, (S)-4-(cyclopropylethynyl)-7-((4-(difluoromethyl)-6-oxopyrimidin-1(6H)-yl)methyl)-6-fluoro-4-(trifluoromethyl)-3,4-dihydroquinazolin-2(1H)-one]	38
COCc1cc(=O)n(Cc2cc3c(cc2F)[C@@](C#CC2CC2)(C(F)(F)F)NC(=O)N3)cn1 [Example 7, (S)-4-(cyclopropylethynyl)-6-fluoro-7-((4-(methoxymethyl)-6-oxopyrimidin-1(6H)-yl)methyl)-4-(trifluoromethyl)-3,4-dihydroquinazolin-2(1H)-one]	44
Nc1c(Cl)ncn(Cc2cc3c(cc2F)[C@@](C#CC2CC2)(C(F)(F)F)NC(=O)N3)c1=O [Example 8, (S)-7-((5-amino-4-chloro-6-oxopyrimidin-1(6H)-yl)methyl)-4-(cyclopropylethynyl)-6-fluoro-4-(trifluoromethyl)-3,4-dihydroquinazolin-2(1H)-one]	46
Nc1nccn(Cc2ccc3c(c2)NC(=O)N[C@]3(C#CC2CC2)C(F)(F)F)c1=O [Example 9, (S)-7-((3-amino-2-oxopyrazin-1(2H)-yl)methyl)-4-(cyclopropylethynyl)-4-(trifluoromethyl)-3,4-dihydroquinazolin-2(1H)-one]	30
Nc1c(Cl)ncn(Cc2cc3c(cc2Cl)[C@@](C#CC2CC2)(C(F)(F)F)NC(=O)N3)c1=O [Example 11, (S)-7-((5-amino-4-chloro-6-oxopyrimidin-1(6H)-yl)methyl)-6-chloro-4-(cyclopropylethynyl)-4-(trifluoromethyl)-3,4-dihydroquinazolin-2(1H)-one]	33
O=C1Nc2cc(Cn3cnc(Cl)cc3=O)c(Cl)cc2[C@@](C#CC2CC2)(C(F)(F)F)N1 [Example 12, (S)-6-chloro-7-((4-chloro-6-oxopyrimidin-1(6H)-yl)methyl)-4-(cyclopropylethynyl)-4-(trifluoromethyl)-3,4-dihydroquinazolin-2(1H)-one]	33
Nc1cc(=O)n(Cc2cc3c(cc2Cl)[C@@](C#CC2CC2)(C(F)(F)F)NC(=O)N3)cn1 [Example 13, (S)-7-((4-amino-6-oxopyrimidin-1(6H)-yl)methyl)-6-chloro-4-(cyclopropylethynyl)-4-(trifluoromethyl)-3,4-dihydroquinazolin-2(1H)-one]	46
O=C1Nc2cc(Cn3cnccc3=O)c(Br)cc2[C@@](C#CC2CC2)(C(F)(F)F)N1 [Example 14, (S)-6-bromo-4-(cyclopropylethynyl)-7-((6-oxopyrimidin-1(6H)-yl)methyl)-4-(trifluoromethyl)-3,4-dihydroquinazolin-2(1H)-one]	31
COCc1cc(=O)n(Cc2ccc3c(c2)NC(=O)N[C@]3(C#CC2CC2)C(C)(F)F)cn1 [Example 15, (S)-4-(cyclopropylethynyl)-4-(1,1-difluoroethyl)-7-((4-(methoxymethyl)-6-oxopyrimidin-1(6H)-yl)methyl)-3,4-dihydroquinazolin-2(1H)-one]	65
Nc1nc(Br)cn(Cc2cc3c(cc2F)[C@@](C#CC2CC2)(C(F)(F)F)NC(=O)N3)c1=O [Example 16, (S)-7-((3-amino-5-bromo-2-oxopyrazin-1(2H)-yl)methyl)-4-(cyclopropylethynyl)-6-fluoro-4-(trifluoromethyl)-3,4-dihydroquinazolin-2(1H)-one]	38
CC(F)(F)[C@@]1(C#CC2CC2)NC(=O)Nc2cc(Cn3ccnc(N)c3=O)c(Cl)cc21 [Example 17, (S)-7-((3-amino-2-oxopyrazin-1(2H)-yl)methyl)-6-chloro-4-(cyclopropylethynyl)-4-(1,1-difluoroethyl)-3,4-dihydroquinazolin-2(1H)-one]	17

Reference: patent publication US12558357B2, “Tetrahydroquinazoline derivatives as selective cytotoxic agents” (Merck Sharp & Dohme LLC, priority 2020, dated 2026)
